Measurements from patent publication US5079376A, “Novel substance UCT-1003 and process for producing the same” (Kyowa Hakko Kogyo, Ltd., priority 1989, dated 1992).
Values after ≈ are worked out from the molar mass of the structure shown.

Assays:
[1] = system: lymphocytic leukemia P388 tumor; experiment: Anti-tumor activity against lymphocytic leukemia P388 tumor; format: in vivo, CDF1 mice; settings: mean survival days vs PBS control
Description: Five male CDF1 mice each having a weight of about 22 g were used for each group as test animals, and 1×10^6 cells of lymphocytic leukemia P388 tumor cells were intraperitoneally implanted into the animals. Phosphate solution saline (PBS) containing UCT-1003 (0.2 ml) was once administered intraperitoneally 24 hours after the implantation of tumor cells. The composition of PBS was 0.8 g/dl NaCl, 0.02 g/dl KCl, […] Na2 HPO4 and 0.02 g/dl KH2 PO4 (pH 7.2). For comparison, 0.2 ml of PBS containing mitomycin C was intraperitoneally administered 24 hours after the implantation of tumor cells. Increased life span determined from mean survival days after the implantation is shown in Table 3 as T/C (T: mean survival days of the test groups, C: mean survival days of the control group which received 0.2 ml of PBS intraperitoneally).

Escherichia coli ATCC 26 = experiment: Antibacterial activity (MIC), agar dilution method, Escherichia coli; format: cell-based; settings: ATCC26, pH 7, read-out: minimum inhibitory concentration (MIC)
Description: (§1) The antibacterial activity was determined by the agar dilution method using a medium (pH 7) which comprises 3 g/l Bacto-Tryptone (Difco Laboratories), 3 g/l meat extract, 1 g/l yeast extract, 1 g/l glucose and 16 g/l agar.

[2] = system: Staphylococcus aureus ATCC 6538P; experiment: Antibacterial activity (MIC), agar dilution method, Staphylococcus aureus; format: cell-based; settings: ATCC6538P, pH 7, read-out: minimum inhibitory concentration (MIC)
Description: as §1

[3] = system: Enterococcus faecium ATCC 10541; experiment: Antibacterial activity (MIC), agar dilution method, Enterococcus faecium; format: cell-based; settings: ATCC10541, pH 7, read-out: minimum inhibitory concentration (MIC)
Description: as §1

Solubility in solvents = format: physicochemical
[4] = system: Klebsiella pneumoniae ATCC 10031; experiment: Antibacterial activity (MIC), agar dilution method, Klebsiella pneumoniae; format: cell-based; settings: ATCC10031, pH 7, read-out: minimum inhibitory concentration (MIC)
Description: as §1

HeLaS3 cells = experiment: Anti-tumor activity against HeLaS3 cells (growth inhibition, Neutral Red); format: cell-based; settings: Homo sapiens, HeLa S3, 72 hours
[5] = system: Bacillus subtilis No. 10707; experiment: Antibacterial activity (MIC), agar dilution method, Bacillus subtilis; format: cell-based; settings: pH 7, read-out: minimum inhibitory concentration (MIC)
Description: as §1

T24 cells = experiment: Anti-tumor activity against T24 cells (growth inhibition, Neutral Red); format: cell-based; settings: Homo sapiens, T-24, 72 hours, 37° C.
Description: T24 cells were suspended in a medium comprising F10 medium (Gibco Co., Ltd.), 0.1 g/ml fetal calf serum, 100 units/ml penicillin and 100 ug/ml streptomycin (hereinafter referred to as medium A) to a concentration of 2×10^4 cells/ml. The cell suspension thus prepared was put into wells of a 96-well microtiter plate in the amount of 0.1 ml per well. After incubation at 37° C. for 20 hours in a CO2 -incubator, 0.05 ml of a test sample appropriately diluted with medium A was added to each well. The cells were further cultured at 37° C. for 72 hours in the CO2 -incubator and the culture supernatant was removed. To the residue was added a medium comprising medium A and 0.02% Neutral Red in the amount of 0.1 ml per well, followed by culturing at 37° C. for one hour in the CO2 -incubator, whereby the cells were stained. After removal of the culture supernatant, the residue was washed once with physiological saline.
The pigment was extracted with 0.001N hydrochloric acid/30% ethanol and absorbance at 550 nm was measured by using a microplate reader. The concentration of the test compound at which the growth of the cells is inhibited by 50% (IC50) was calculated by comparing the absorbance of untreated cells with those of the cells treated with the test compound at known concentrations.

[6] = system: Shigella sonnei ATCC 9290; experiment: Antibacterial activity (MIC), agar dilution method, Shigella sonnei; format: cell-based; settings: ATCC9290, pH 7, read-out: minimum inhibitory concentration (MIC)
Description: as §1

[7] = system: Salmonella typhi ATCC 9992; experiment: Antibacterial activity (MIC), agar dilution method, Salmonella typhi; format: cell-based; settings: Salmonella enterica, pH 7, read-out: minimum inhibitory concentration (MIC)
Description: as §1

Row | Compound | Increased life span (T/C) ([1]; 4 mg/kg, i.p. 24 hours after i.p. implantation) | MIC (Escherichia coli ATCC 26) | MIC [2] | Increased life span (T/C) ([1]; 12.5 mg/kg, single i.p. 24 hours after i.p. implantation) | Increased life span (T/C) ([1]; 25 mg/kg, single i.p. 24 hours after i.p. implantation) | Increased life span (T/C) ([1]; 50 mg/kg, single i.p. 24 hours after i.p. implantation) | MIC [3] | Solubility in solvents (Solubility in solvents; chloroform and ethyl acetate) | Solubility in solvents (Solubility in solvents; dimethylsulfoxide, pyridine, methanol, ethanol and acetone) | Solubility in solvents (Solubility in solvents; water and n-hexane) | MIC [4] | IC50 (HeLaS3 cells) | MIC [5] | IC50 (T24 cells) | MIC [6] | MIC [7]
1 | CO[C@@]12[C@H](COC(N)=O)C3=C(C(=O)C(C)=C(N)C3=O)N1C[C@@H]1N[C@@H]12 [Mitomycin C, mitomycin C, reference compound] | 1.57 | – | – | – | – | – | – | – | – | – | – | – | – | – | – | –
2 | O=C1c2cc(O)cc(O)c2C(=O)c2c1cc1cc(O)cc(O)c1c2O [UCT-1003] | – | > 100 µg/mL | 2.6 µg/mL (≈ 7.69 µM) | 1.21 | 1.30 | 1.30 | 2.6 µg/mL (≈ 7.69 µM) | soluble | Readily soluble | sparingly soluble | > 100 µg/mL | 0.35 µg/mL (≈ 1.03 µM) | 83 µg/mL (≈ 245 µM) | 0.13 µg/mL (≈ 0.384 µM) | > 100 µg/mL | > 100 µg/mL
